Measured values from PubChem BioAssay (NCI).
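Step 1: Grow cells in 96-well plates. Step 2: Expose to compound for 48 hours at 5 concentrations. Step 3: Interpolate endpoints linearly; if unreached, use highest concentration. GI50 = concentration required for 50% inhibition of growth. TGI marks complete inhibition of growth.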

Tests used:
Experiment in all cases: DTP human tumour cell line panel, 48 h
CCRF-CEM leukemia = test system: CCRF-CEM leukemia
UACC-257 melanoma = test system: UACC-257 melanoma
SK-MEL-2 melanoma = test system: SK-MEL-2 melanoma
HCT-116 colon = test system: HCT-116 colon
A498 renal = test system: A498 renal
HT29 colon = test system: HT29 colon
M14 melanoma = test system: M14 melanoma
K-562 leukemia = test system: K-562 leukemia
U251 CNS = test system: U251 CNS
MDA-N = test system: MDA-N

Row | SMILES | TGI (CCRF-CEM leukemia) [µM] | TGI (UACC-257 melanoma) [µM] | TGI (SK-MEL-2 melanoma) [µM] | TGI (HCT-116 colon) [µM] | TGI (A498 renal) [µM] | TGI (HT29 colon) [µM] | TGI (M14 melanoma) [µM] | TGI (K-562 leukemia) [µM] | TGI (U251 CNS) [µM] | TGI (MDA-N) [µM] | GI50 (SK-MEL-2 melanoma) [µM] | GI50 (A498 renal) [µM] | GI50 (M14 melanoma) [µM]
1 | Nc1nc(SCCNC(=O)CCc2ccc(O)cc2)nc2c1ncn2C1OC(CO)C(O)C1O (stereo unspecified) | > 203 | > 203 | > 203 | > 203 | > 203 | > 203 | > 203 | > 203 | > 203 | – | – | – | –
2 | CC1(C23CC4CC(CC(C4)C2)C3)n2c(=O)n(-c3ccccc3)c(=O)n2C1(C)C12CC3CC(CC(C3)C1)C2 (stereo unspecified) | > 100 | > 100 | > 100 | – | > 100 | > 100 | > 100 | > 100 | > 100 | > 100 | – | – | –
3 | COc1ccc(N2C(=O)C3ON(C(C(N)=O)c4ccccc4)C(c4ccc(-c5ccccc5)cc4)C3C2=O)cc1 (stereo unspecified) | > 50 | > 50 | > 50 | > 50 | > 50 | > 50 | > 50 | > 50 | > 50 | – | – | – | –
4 | Cc1cc(C)nc(NS(=O)(=O)c2ccc(Nc3c4ccccc4nc4c(C(=O)NCCCN(CCO)CCO)cccc34)cc2)n1 | 69.7 | > 100 | 34.8 | – | > 100 | > 100 | 99.2 | > 100 | > 100 | 83.7 | – | – | –
5 | COc1cc(C2C(Cl)C(=O)N2NC(=O)c2ccccc2O)ccc1O (stereo unspecified) | > 100 | > 100 | > 100 | > 100 | > 100 | > 100 | > 100 | > 100 | > 100 | – | – | – | –
6 | CN1C2CC(=O)CC1[C@H](O)[C@@H]2O | > 100 | > 100 | > 100 | > 100 | – | > 100 | > 100 | > 100 | > 100 | > 100 | – | – | –
7 | COc1cc2c(c(C)c1O)[C@H]1COc3ccccc3[C@H]1O2 | 56.6 | 52.9 | > 100 | 18.7 | > 100 | > 100 | 24.6 | 56.5 | – | – | – | – | –
8 | CCCn1c(SCC)c2ccccc2c1-c1nc(F)nc(F)n1 | > 100 | – | > 100 | > 100 | > 100 | > 100 | > 100 | > 100 | > 100 | – | – | – | –
9 | Cc1cccc2c1Oc1cc(Cl)ccc1C2NC(=O)CCN1CCN(CCO)CC1 (stereo unspecified) | 37.9 | 33.7 | – | 34.6 | – | 29.8 | 30.3 | 40.6 | 29.3 | 14.6 | – | – | –
10 | CCCCC(=O)Nc1ccc2cc(C(=O)OC)c(ON3C(=O)c4ccccc4C3=O)nc2n1 | > 100 | > 100 | > 100 | 45.9 | > 100 | – | 43.3 | > 100 | > 100 | 80.7 | – | – | –
11 | NCCCNc1nc2ccccc2c2c(=O)c3cc(C(F)(F)F)ccc3sc12 | – | – | 3.82 | – | 3.23 | – | 3.12 | – | – | – | 1.93 | 1.73 | 1.64
12 | CCCc1c(OC)c(=O)c2c(OC)cc(OC)c3c4c(OC)cc(OC)c5c(=O)c(OC)c(CCC)c(c1c23)c54 | – | 46.6 | 49.8 | 28 | 37.1 | 24.1 | 30.6 | – | 29.6 | 32.9 | – | – | –
